System: mosquitos
Test: Insecticidal effect (knock-down effect) by the open cylinder method
Assay type: in vivo
Details: for Insecticidal effect 15d (relative effectiveness ratio): fifteenth day; for Insecticidal effect 1d (relative effectiveness ratio): first day; for Insecticidal effect 30d (relative effectiveness ratio): thirtieth day
Source text: An insecticide was impregnated in various kinds of raw materials for preparing insecticide impregnated materials. The resulting insecticide-impregnated materials were housed in their respective insecticide cartridges of Example 1 and Comparative Example 1, followed by mounting each of them on an insecticide transpiration apparatus of the present invention. Subsequently, each of them was subjected to a measurement for estimating the transpiring amount of the chemical and a test for estimating insecticide effects on the first, fifteenth and thirtieth days while using the apparatus for twelve hours a day.
A test of insecticidal effect (knock-down effect) was performed by the open cylinder method according to the following procedures.
Procedures for Estimating the Insecticidal Effect of an Insecticidal Compound
Two plastic cylinders of 20 cm in inside diameter and 43 cm in height are piled up. A cylinder of 20 cm both in inside diameter and height is partitioned vertically with a wire net of 16 mesh (the place where the mosquitos are put in), and is placed thereon. A cylinder of 20 cm in inside diameter and height is further placed thereon. This set consisting of the four cylinders is placed on a stand, and an insecticide transpiration apparatus is placed in the middle of the stand to transpire the insecticidal ingredient in the chemical-impregnated material to be examined. Then about 20 mosquitos to be tested are released in the upper stair of the cylinder set and the number of mosquitos knocked down is observed with the time elapsed.
Furthermore, the insecticidal effect was indicated as a relative effectiveness ratio in which an initial turning-over effect obtained by evaporation from a mosquito-repellent mat containing dl, d-cis, trans-allethrin (Pynamin Forte) on condition that a radiator plate of a heating unit is at a temperature of 160° C. The above test was repeated with various kinds of insecticides and the various amounts thereof, various chemical-impregnated materials and various particle sizes thereof, various free-volumes of the insecticide cartridge, various rotational speeds of the motor, respectively.

[1] = cartridge of Comparative Example 1, relative to Pynamin Forte mat
[2] = cartridge of Example 1, relative to Pynamin Forte mat
[3] = cartridge of Example 1, relative to initial effect of dl, d-cis, trans-allethrin (Pynamin Forte) mat at 160° C.

SMILES | Insecticidal effect 15d (relative effectiveness ratio) [1] | Insecticidal effect 1d (relative effectiveness ratio) [1] | Insecticidal effect 30d (relative effectiveness ratio) [1] | Insecticidal effect 15d (relative effectiveness ratio) [2] | Insecticidal effect 1d (relative effectiveness ratio) [3] | Insecticidal effect 30d (relative effectiveness ratio) [2]
C#CCc1c(F)c(F)c(COC(=O)C2C(C=CC)C2(C)C)c(F)c1F (stereo not drawn) [Compound I, 4-propargyl-2,3,5,6-tetrafluorobenzyl-3-(1-propenyl)-2,2-dimethylcyclopropane carboxylate] | 2.5 | 2.6 | 2.4 | 2.9 | 3.0 | 2.9
Cc1c(F)c(F)c(COC(=O)C2C(C=C(F)F)C2(C)C)c(F)c1F (stereo not drawn) [Compound E, 4-methyl-2,3,5,6-tetrafluorobenzyl-2,2-dimethyl-3-(2,2-difluorovinyl)cyclopropane carboxylate] | 2.3 | 2.4 | 2.3 | 2.8 | 2.9 | 2.8
CC=CC1C(C(=O)OCc2c(F)c(F)c(COC)c(F)c2F)C1(C)C (stereo not drawn) [Compound G, 4-methoxymethyl-2,3,5,6-tetrafluorobenzyl-2,2-dimethyl-3-(1-propenyl)cyclopropane carboxylate] | 2.8 | 2.9 | 2.8 | 3.4 | 3.4 | 3.4
CC(C)=CC1C(C(=O)OCc2c(F)c(F)c(C)c(F)c2F)C1(C)C (stereo not drawn) [Compound C, 4-methyl-2,3,5,6-tetrafluorobenzyl-chrysanthemate] | 1.7 | 1.8 | 1.6 | 2.2 | 2.3 | 2.2
COCc1c(F)c(F)c(COC(=O)C2C(C=C(C)C)C2(C)C)c(F)c1F (stereo not drawn) [Compound F, 4-methoxymethyl-2,3,5,6-tetrafluorobenzyl-chrysanthemate] | 1.7 | 1.9 | 1.5 | 2.5 | 2.6 | 2.5
CC=CC1C(C(=O)OCc2c(F)c(F)cc(F)c2F)C1(C)C (stereo not drawn) [Compound B, 2,3,5,6-tetrafluorobenzyl-2,2-dimethyl-3-(1-propenyl) cyclopropane carboxylate] | 2.1 | 2.2 | 2.0 | 2.7 | 2.8 | 2.7
CC1(C)C(C=C(Cl)C(F)(F)F)C1C(=O)OCc1c(F)c(F)c(F)c(F)c1F (stereo not drawn) [Compound H, 2,3,4,5,6-pentafluorobenzyl-2,2-dimethyl-3-(2-chloro-2-trifluoromethylvinyl)cyclopropane carboxylate] | 1.7 | 1.9 | 1.7 | 2.3 | 2.4 | 2.3
COCc1c(F)c(F)c(COC(=O)C2C(C)(C)C2(C)C)c(F)c1F [Compound J, 4-methoxymethyl-2,3,5,6-tetrafluorobenzyl-2,2,3,3-tetramethylcyclopropane carboxylate] | 2.4 | 2.5 | 2.4 | 2.8 | 2.9 | 2.8
C#CCc1c(F)c(F)c(COC(=O)C2C(C)(C)C2(C)C)c(F)c1F [Compound K, 4-propargyl-2,3,5,6-tetrafluorobenzyl-2,2,3,3-tetramethyl cyclopropane carboxylate] | 2.2 | 2.3 | 2.1 | 2.7 | 2.8 | 2.7
CC(C)=CC1C(C(=O)OCc2c(F)c(F)cc(F)c2F)C1(C)C (stereo not drawn) [Compound A, 2,3,5,6-tetrafluorobenzyl-chrysanthemate] | 3.3 | 3.4 | 3.3 | 3.8 | 3.9 | 3.8
CC=CC1C(C(=O)OCc2c(F)c(F)c(C)c(F)c2F)C1(C)C (stereo not drawn) [Compound D, 4-methyl-2,3,5,6-tetrafluorobenzyl-2,2-dimethyl-3-(1-propenyl)cyclopropane carboxylate] | 2.7 | 2.8 | 2.6 | 3.2 | 3.2 | 3.1

— patent US7459168B2, “Insecticide transpiration apparatus” (Dainihon Jochugiku Co., Ltd., priority 2002, dated 2008)
